Measurements from publication PMC11456916, “A screen for cell envelope stress uncovers an inhibitor of prolipoprotein diacylglyceryl transferase, Lgt, in Escherichiacoli” (iScience, 2024).

System: 356 CRISPRi constructs in E. coli ΔtolC-pore
Test: CRISPRi collection fitness screen with sub-inhibitory compound
Type: cell-based
Settings: for Growth represented as mean colony biomass: 1μg/ml MAC0452936, 6ng/ml LolCDE-in-1, 250 ng/ml Vancomycin, 7 ng/ml CHIR090, n=4; for Growth, mean colony biomass (n=4): + 1μg/ml MAC0452936
Procedure, shortened: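 Mobile CRISPRi collection conjugated into the ΔtolC-pore strain and pinned on agar at 1536 density in technical quadruplicate with a sub-inhibitory MAC-0452936 concentration. No CRISPRi induction; only basal 5–10% knockdown.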

## COc1ccc(C(=O)O/N=C(\c2cccs2)C(C)(C)C)cc1 [MAC0452936]
gRNA accA
  Growth represented as mean colony biomass: 0.9619
gRNA aceF
  Growth, mean colony biomass (n=4): 1.536
gRNA alaS
  Growth, mean colony biomass (n=4): 1.17
gRNA argS
  Growth, mean colony biomass (n=4): 1.078
gRNA asnS
  Growth, mean colony biomass (n=4): 1.097
gRNA bamA
  Growth, mean colony biomass (n=4): 1.082
gRNA bamD
  Growth, mean colony biomass (n=4): 1.114
gRNA bioA
  Growth, mean colony biomass (n=4): 1.093
gRNA can
  Growth, mean colony biomass (n=4): 1.0791
gRNA cca
  Growth represented as mean colony biomass: 0.9631
gRNA coaA
  Growth represented as mean colony biomass: 0.9606
gRNA csrA
  Growth, mean colony biomass (n=4): 1.147
gRNA cydA
  Growth represented as mean colony biomass: 0.9568
gRNA cydX
  Growth represented as mean colony biomass: 0.9584
gRNA dapD
  Growth represented as mean colony biomass: 0.9537
gRNA dapE
  Growth represented as mean colony biomass: 0.9829
gRNA der
  Growth represented as mean colony biomass: 0.8304
gRNA dfp
  Growth represented as mean colony biomass: 0.9766
gRNA dnaC
  Growth, mean colony biomass (n=4): 1.0695
gRNA dnaE
  Growth represented as mean colony biomass: 0.9743
gRNA dnaN
  Growth represented as mean colony biomass: 0.9941
gRNA dnaX
  Growth represented as mean colony biomass: 0.9797
gRNA dut
  Growth, mean colony biomass (n=4): 1.096
gRNA eno
  Growth represented as mean colony biomass: 0.9696
gRNA era
  Growth represented as mean colony biomass: 0.9809
gRNA fabA
  Growth represented as mean colony biomass: 0.9981
gRNA fabG
  Growth represented as mean colony biomass: 0.9894
gRNA fabI
  Growth represented as mean colony biomass: 0.9716
gRNA fdx
  Growth represented as mean colony biomass: 0.9955
gRNA fldA
  Growth represented as mean colony biomass: 0.9924
gRNA folA
  Growth, mean colony biomass (n=4): 1.134
gRNA folB
  Growth represented as mean colony biomass: 0.9792
gRNA folC
  Growth, mean colony biomass (n=4): 1.076
gRNA folE
  Growth represented as mean colony biomass: 0.9726
gRNA folP
  Growth represented as mean colony biomass: 0.9946
gRNA frr
  Growth represented as mean colony biomass: 0.9805
gRNA ftsA
  Growth, mean colony biomass (n=4): 1.121
gRNA gapA
  Growth represented as mean colony biomass: 0.983
gRNA glmS
  Growth, mean colony biomass (n=4): 1.092
gRNA glmU
  Growth represented as mean colony biomass: 0.9808
gRNA gltX
  Growth represented as mean colony biomass: 0.9823
gRNA glyA
  Growth, mean colony biomass (n=4): 1.091
gRNA groS
  Growth represented as mean colony biomass: 0.9881
gRNA grpE
  Growth represented as mean colony biomass: 0.9656
gRNA guaA
  Growth represented as mean colony biomass: 0.9795
gRNA hemD
  Growth, mean colony biomass (n=4): 1.079
gRNA hemG
  Growth represented as mean colony biomass: 0.9986
gRNA hemH
  Growth represented as mean colony biomass: 1.001
gRNA hemL
  Growth represented as mean colony biomass: 0.9838
gRNA higA
  Growth represented as mean colony biomass: 0.9635
gRNA hisS
  Growth represented as mean colony biomass: 0.9859
gRNA holD
  Growth represented as mean colony biomass: 0.9764
gRNA hscA
  Growth represented as mean colony biomass: 0.9953
gRNA infA
  Growth, mean colony biomass (n=4): 1.088
gRNA infC
  Growth represented as mean colony biomass: 0.9986
gRNA iscU
  Growth represented as mean colony biomass: 0.9867
gRNA ispB
  Growth represented as mean colony biomass: 0.9983
gRNA ispF
  Growth represented as mean colony biomass: 0.9875
gRNA leuS
  Growth, mean colony biomass (n=4): 1.417
gRNA lexA
  Growth, mean colony biomass (n=4): 1.542
gRNA lolC
  Growth represented as mean colony biomass: 0.9579
gRNA lptA
  Growth, mean colony biomass (n=4): 1.476
gRNA lptB
  Growth, mean colony biomass (n=4): 1.32
gRNA lptC
  Growth represented as mean colony biomass: 0.9585
gRNA lptE
  Growth represented as mean colony biomass: 0.965
gRNA lptF
  Growth represented as mean colony biomass: 0.9902
gRNA lptG
  Growth represented as mean colony biomass: 0.9845
gRNA lpxC
  Growth represented as mean colony biomass: 0.9609
gRNA lpxD
  Growth represented as mean colony biomass: 0.9569
gRNA mnmA
  Growth, mean colony biomass (n=4): 1.086
gRNA mrdB
  Growth, mean colony biomass (n=4): 1.167
gRNA mreB
  Growth represented as mean colony biomass: 0.9936
gRNA mreC
  Growth represented as mean colony biomass: 0.9829
gRNA msbA
  Growth, mean colony biomass (n=4): 1.264
gRNA mukF
  Growth, mean colony biomass (n=4): 1.116
gRNA murB
  Growth represented as mean colony biomass: 0.9708
gRNA murC
  Growth represented as mean colony biomass: 0.97
gRNA murI
  Growth, mean colony biomass (n=4): 1.3051
gRNA nadK
  Growth, mean colony biomass (n=4): 1.081
gRNA nusB
  Growth represented as mean colony biomass: 0.9578
gRNA plsB
  Growth represented as mean colony biomass: 0.995
gRNA prmC
  Growth, mean colony biomass (n=4): 1.083
gRNA proS
  Growth represented as mean colony biomass: 0.9787
gRNA psd
  Growth, mean colony biomass (n=4): 1.711
gRNA pssA
  Growth, mean colony biomass (n=4): 1.089
gRNA ptsI
  Growth, mean colony biomass (n=4): 1.104
gRNA racR
  Growth represented as mean colony biomass: 0.9926
gRNA rho
  Growth, mean colony biomass (n=4): 1.226
gRNA ribA
  Growth represented as mean colony biomass: 0.9923
gRNA ribC
  Growth represented as mean colony biomass: 0.9978
gRNA ribD
  Growth, mean colony biomass (n=4): 1.096
gRNA ribF
  Growth represented as mean colony biomass: 0.9646
gRNA rimM
  Growth represented as mean colony biomass: 0.9609
gRNA rluD
  Growth represented as mean colony biomass: 0.9905
gRNA rne
  Growth, mean colony biomass (n=4): 1.098
gRNA rpe
  Growth represented as mean colony biomass: 0.9763
gRNA rplA
  Growth, mean colony biomass (n=4): 1.0727
gRNA rplD
  Growth represented as mean colony biomass: 0.8324
gRNA rplE
  Growth represented as mean colony biomass: 0.9904
gRNA rplJ
  Growth represented as mean colony biomass: 0.9775
gRNA rplO
  Growth represented as mean colony biomass: 0.9724
gRNA rplP
  Growth, mean colony biomass (n=4): 1.071
gRNA rplQ
  Growth represented as mean colony biomass: 0.9778
gRNA rplS
  Growth represented as mean colony biomass: 0.9888
gRNA rplV
  Growth, mean colony biomass (n=4): 1.1552
gRNA rplX
  Growth, mean colony biomass (n=4): 1.077
gRNA rplY
  Growth represented as mean colony biomass: 0.9853
gRNA rpmC
  Growth, mean colony biomass (n=4): 1.078
gRNA rpmH
  Growth represented as mean colony biomass: 0.9594
gRNA rpmI
  Growth represented as mean colony biomass: 1.001
gRNA rpoC
  Growth, mean colony biomass (n=4): 1.115
gRNA rpoE
  Growth, mean colony biomass (n=4): 1.071
gRNA rpoH
  Growth represented as mean colony biomass: 0.994
gRNA rpsC
  Growth, mean colony biomass (n=4): 1.101
gRNA rpsD
  Growth, mean colony biomass (n=4): 1.173
gRNA rpsE
  Growth represented as mean colony biomass: 0.8351
gRNA rpsF
  Growth represented as mean colony biomass: 0.9675
gRNA rpsG
  Growth, mean colony biomass (n=4): 1.126
gRNA rpsH
  Growth represented as mean colony biomass: 0.8152
gRNA rpsK
  Growth, mean colony biomass (n=4): 1.169
gRNA rpsL
  Growth, mean colony biomass (n=4): 1.132
gRNA rpsM
  Growth, mean colony biomass (n=4): 1.248
gRNA rpsR
  Growth, mean colony biomass (n=4): 1.124
gRNA rpsT
  Growth, mean colony biomass (n=4): 1.094
gRNA rsgA
  Growth represented as mean colony biomass: 0.8391
gRNA safA
  Growth represented as mean colony biomass: 0.9619
gRNA secA
  Growth, mean colony biomass (n=4): 1.102
gRNA secY
  Growth represented as mean colony biomass: 0.8296
gRNA serS
  Growth represented as mean colony biomass: 0.9537
gRNA ssb
  Growth represented as mean colony biomass: 0.8295
gRNA sucA
  Growth represented as mean colony biomass: 0.8419
gRNA suhB
  Growth, mean colony biomass (n=4): 1.09
gRNA tilS
  Growth represented as mean colony biomass: 0.9915
gRNA tonB
  Growth represented as mean colony biomass: 0.9615
gRNA trmD
  Growth represented as mean colony biomass: 0.9721
gRNA tsaB
  Growth represented as mean colony biomass: 0.9923
gRNA tsaD
  Growth represented as mean colony biomass: 0.966
gRNA tsaE
  Growth, mean colony biomass (n=4): 1.071
gRNA tsf
  Growth represented as mean colony biomass: 0.966
gRNA tusE
  Growth represented as mean colony biomass: 0.9697
gRNA tyrS
  Growth represented as mean colony biomass: 0.9746
gRNA ubiB
  Growth represented as mean colony biomass: 0.9956
gRNA ubiD
  Growth represented as mean colony biomass: 0.9717
gRNA waaA
  Growth, mean colony biomass (n=4): 1.073
gRNA ydaS
  Growth represented as mean colony biomass: 0.9729
gRNA ydcD
  Growth represented as mean colony biomass: 0.9759
gRNA ydhL
  Growth represented as mean colony biomass: 1
gRNA yedN
  Growth, mean colony biomass (n=4): 1.142
gRNA yejM
  Growth represented as mean colony biomass: 0.9938
gRNA yffS
  Growth represented as mean colony biomass: 0.9919
gRNA ygeF
  Growth represented as mean colony biomass: 0.966
gRNA ygeN
  Growth, mean colony biomass (n=4): 1.0865
gRNA yidC
  Growth represented as mean colony biomass: 0.8136
gRNA ymfE
  Growth represented as mean colony biomass: 0.9804
gRNA ymiB
  Growth represented as mean colony biomass: 0.9585
gRNA yqeL
  Growth, mean colony biomass (n=4): 1.316
gRNA yqgF
  Growth represented as mean colony biomass: 0.9701
gRNA zipA
  Growth, mean colony biomass (n=4): 1.803
